Tested on: primary cortical neurons
Test: Cytoprotection against NMDA excitotoxicity (propidium iodide staining)
Assay type: cell-based, rat
Conditions: 25 μM pretreatment 72 h or 48 h, NMDA 200 μM 30 min
Protocol: FIG. 7: Cytoprotection of Idoxuridine against excitotoxicity of NMDA. Mature primary neurons were pretreated with Idoxuridine (25 μM) or DMSO (ctrl cells) for 72 h or 48 h and subsequently exposed to NMDA (200 μM) for 30 min. Cell viability was assessed by propidium iodide (PI) staining. Both control and treated cells were incubated for 30 min with 6 μM PI which stains nuclei of dead cells. After extensive washing with Tyrode's buffer, samples were fixed and stained with DAPI to visualize all cell nuclei. PI positive cells were counted at several regions on coverslips and expressed as percentage of total cells visualized with DAPI stain. […] Data are expressed as means+/−SD and analyzed by one-way ANOVA with Dunnett's posthoc test. *p<0.001
Primary cortical neurons: Primary cortical neurons were prepared from E18 rat embryos. Cortices were isolated, cleared from meninges and dissociated after incubation in HBSS (Ca^2+ and Mg^2+-free) with 0.25% trypsin for 20 min at 37° C. […]
Mature primary neurons were pretreated with Idoxuridine (25 μM) or DMSO (ctrl cells) for 72 h or 48 h and subsequently exposed to NMDA (200 μM) for 30 min. Cell viability was assessed by propidium iodide (PI) staining. […] PI positive cells were counted at several regions on coverslips and expressed as percentage of total cells visualized with DAPI stain. […]

For `O=c1[nH]c(=O)n([C@H]2C[C@H](O)[C@@H](CO)O2)cc1I` [Idoxuridine, 2′-deoxy-5-iodouridine], which “effect on excitotoxicity induced by NMDA (PI positive cells)” value is on record?
Its value is “significantly counteracted”.

Source: US11103525B2, “Idoxuridine and its analogs as neuroprotectans for the treatment of parkinsonism” (priority 2017, dated 2021)
